Assay results taken from EP4428121A1, “MODULATORS OF SORTILIN ACTIVITY” (Vesper Bio Aps, priority 2023, dated 2024).

Key:
Human (6-His)Sortilin = target: T1, Human (6-His)Sortilin (Homo sapiens, UniProt Q99523); experiment: Human Sortilin GCI (Grating-Coupled Interferometry) binding assay; conditions: Creoptix WAVE-RAPID, single concentration (usually 1 µM, 10 µM or 100 µM), immobilised Human (6-His)Sortilin, 1:1 kinetic binding model
T1 construct: purchased RnD Systems
T1 sequence (Q99523 78-755 limits assumed): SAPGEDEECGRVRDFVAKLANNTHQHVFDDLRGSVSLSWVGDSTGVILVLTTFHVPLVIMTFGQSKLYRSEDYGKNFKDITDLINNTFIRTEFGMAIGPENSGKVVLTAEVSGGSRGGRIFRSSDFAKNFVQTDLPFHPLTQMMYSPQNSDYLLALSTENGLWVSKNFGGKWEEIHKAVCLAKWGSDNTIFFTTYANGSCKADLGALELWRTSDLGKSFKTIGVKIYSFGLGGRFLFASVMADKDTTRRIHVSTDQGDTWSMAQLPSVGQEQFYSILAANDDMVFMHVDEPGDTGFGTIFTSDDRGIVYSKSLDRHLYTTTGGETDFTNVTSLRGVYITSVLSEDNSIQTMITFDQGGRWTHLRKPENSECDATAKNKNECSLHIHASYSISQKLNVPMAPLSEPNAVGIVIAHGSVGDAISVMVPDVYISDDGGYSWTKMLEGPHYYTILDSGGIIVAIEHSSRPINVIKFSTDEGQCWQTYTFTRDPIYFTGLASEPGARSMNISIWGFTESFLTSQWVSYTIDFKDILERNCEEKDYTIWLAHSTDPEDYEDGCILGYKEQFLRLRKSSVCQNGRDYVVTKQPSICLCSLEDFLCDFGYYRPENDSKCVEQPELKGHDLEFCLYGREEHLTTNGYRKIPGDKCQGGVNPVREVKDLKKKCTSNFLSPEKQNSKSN

h-Sortilin = target: T2, h-Sortilin (Homo sapiens, UniProt Q99523); experiment: Neurotensin scintillation proximity assay (SPA); conditions: displacement of [3H]-neurotensin binding to h-Sortilin; 150 nM 6his-Sortilin, 5 nM [3H]-Neurotensin; average of at least 2 determinations
T2 sequence (Q99523 78-831): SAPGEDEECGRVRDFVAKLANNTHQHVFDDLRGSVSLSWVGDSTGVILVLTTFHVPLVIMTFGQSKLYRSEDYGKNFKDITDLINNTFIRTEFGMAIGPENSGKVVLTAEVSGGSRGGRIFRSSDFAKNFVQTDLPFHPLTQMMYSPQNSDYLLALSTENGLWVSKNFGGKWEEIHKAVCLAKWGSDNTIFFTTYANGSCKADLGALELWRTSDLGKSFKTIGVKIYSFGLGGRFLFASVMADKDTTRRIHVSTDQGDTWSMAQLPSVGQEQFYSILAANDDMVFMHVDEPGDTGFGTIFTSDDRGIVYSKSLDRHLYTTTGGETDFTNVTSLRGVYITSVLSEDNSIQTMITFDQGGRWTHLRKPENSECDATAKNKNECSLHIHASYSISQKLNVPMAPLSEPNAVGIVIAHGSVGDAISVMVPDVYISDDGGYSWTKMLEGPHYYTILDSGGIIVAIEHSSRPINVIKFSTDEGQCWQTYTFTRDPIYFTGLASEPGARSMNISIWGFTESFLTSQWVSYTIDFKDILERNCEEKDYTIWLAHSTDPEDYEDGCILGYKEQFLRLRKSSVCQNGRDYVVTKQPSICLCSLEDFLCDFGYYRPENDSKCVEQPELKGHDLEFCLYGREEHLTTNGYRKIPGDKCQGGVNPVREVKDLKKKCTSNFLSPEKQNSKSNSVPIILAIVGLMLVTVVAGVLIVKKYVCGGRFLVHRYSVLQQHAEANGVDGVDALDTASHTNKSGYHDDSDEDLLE
Description: NTS, which is a 13 amino acid neuropeptide, is a sortilin ligand.
Compound affinity was determined by measuring the displacement of [^3H]-neurotensin binding to h-Sortilin in SPA format. Total volume of 40 µl in 50 mM HEPES pH 7.4 assay buffer containing 100 mM NaCl, 2.0 mM CaCl2, 0.1% BSA and 0.1% Tween-20. Compound pre-incubation for 30 minutes at room temperature with 150 nM of 6his-Sortilin before 5 nM [3H]-Neurotensin and Ni chelate imaging beads (Perkin Elmer) were added, after 6 hours the plate was read on a ViewLux with 360 s exposure time. Dose-response evaluation of compounds was performed with 8 concentrations of drugs (covering 3 decades). IC50 values were calculated by nonlinear regression using the sigmoid concentration-response (variable slope) using CDD Vault software. All values reported are average of at least 2 determinations.

Row | Compound | Kd (Human (6-His)Sortilin) | IC50 (h-Sortilin)
1 | CC(C)(C)CCC(Nc1ccccn1)c1nn[nH]n1 (racemic) [Example 68, N-2-pyridyl[4,4-dimethyl-1-(2H-tetraazol-5-yl)pentyl]amine] | 7570 nM | 10000 nM
2 | CC(C)(C)CCC(Nc1cccnc1)c1nn[nH]n1 (racemic) [Example 69, N-3-pyridyl[4,4-dimethyl-1-(2H-tetraazol-5-yl)pentyl]amine] | 1800 nM | 10000 nM
3 | CC(C)(C)CC[C@H](Nc1ccccn1)C(=O)O [Example 2, (S)-5,5-dimethyl-2-(2-pyridylamino)hexanoic acid] | 2230 nM | 2200 nM
4 | CC(C)(C)CC[C@H](Nc1cnccn1)C(=O)O [Example 4, (S)-5,5-dimethyl-2-(2-pyrazinylamino)hexanoic acid] | 5570 nM | 1080 nM
5 | CC(C)(C)CC[C@H](Nc1ncccn1)C(=O)O [Example 5, (S)-5,5-dimethyl-2-(2-pyrimidinylamino)hexanoic acid] | 13200 nM | 1190 nM
6 | CC(C)(C)CC[C@H](Nc1cncnc1)C(=O)O [Example 6, (S)-5,5-dimethyl-2-(5-pyrimidinylamino)hexanoic acid] | 4050 nM | 1240 nM
7 | CC(C)(C)CC[C@H](Nc1ccncn1)C(=O)O [Example 7, (S)-5,5-dimethyl-2-(4-pyrimidinylamino)hexanoic acid] | 8280 nM | 1140 nM
8 | CC(C)(C)CC[C@H](Nc1ncnc2ccccc12)C(=O)O [Example 8, (S)-5,5-dimethyl-2-(4-quinazolinylamino)hexanoic acid] | 116 nM | 325 nM
9 | Cc1nccc(N[C@@H](CCC(C)(C)C)C(=O)O)n1 [Example 23, (S)-5,5-dimethyl-2-(2-methyl-4-pyrimidinylamino)hexanoic acid] | 108 nM | 1310 nM
10 | Cc1cc(N[C@@H](CCC(C)(C)C)C(=O)O)ncn1 [Example 24, (S)-5,5-dimethyl-2-(6-methyl-4-pyrimidinylamino)hexanoic acid] | 429 nM | 2870 nM

More lines, now with the values ahead:

Row | Kd (Human (6-His)Sortilin) | IC50 (h-Sortilin) | Compound
11 | 499 nM | 1560 nM | Cc1cc(N[C@@H](CCC(C)(C)C)C(=O)O)nc(C)n1 [Example 25, (S)-2-(2,6-dimethyl-4-pyrimidinylamino)-5,5-dimethylhexanoic acid]
12 | 54.1 nM | 1830 nM | Cc1cccc2c(N[C@@H](CCC(C)(C)C)C(=O)O)ncnc12 [Example 26, (S)-5,5-dimethyl-2-(8-methyl-4-quinazolinylamino)hexanoic acid]
13 | 664 nM | 510 nM | Cc1cncc(N[C@@H](CCC(C)(C)C)C(=O)O)n1 [Example 27, (S)-5,5-dimethyl-2-(6-methyl-2-pyrazinylamino)hexanoic acid]
14 | 525 nM | 670 nM | CC(C)(C)CC[C@H](Nc1cncc(Oc2ccccc2)n1)C(=O)O [Example 28, (S)-5,5-dimethyl-2-(6-phenoxy-2-pyrazinylamino)hexanoic acid]
15 | 1710 nM | 1810 nM | CC(C)(C)CC[C@H](Nc1cccnc1)C(=O)O [Example 31, (S)-5,5-dimethyl-2-(3-pyridylamino)hexanoic acid]
